Laboratory results taken from the NIST ThermoML archive (doi:10.1021/acs.jced.7b00665).
Numbers after ± are expanded uncertainties.

Legend:
[1] = Crystal; DTA
[2] = Molar enthalpy of transition or fusion; details: Crystal; DSC

In the case of `OC/C=C/c1ccccc1` [trans-cinnamyl alcohol], the Normal melting temperature [1] is reported as 32.47 ± 0.61 °C and the “Molar enthalpy of transition or fusion” value [2] is reported as 3.28 ± 0.287 kcal/mol.
